EC50 and IC50 data for 22 molecules are collected here from US11066414B2, “Cot modulators and methods of use thereof” (Gilead Sciences, Inc., priority 2015, dated 2021).

By EC50 is commonly meant the concentration needed to bring the measured effect to its halfway point. The IC50 is the midpoint of a concentration-inhibition curve.

The test system of one assay is TNFα. Put plainly: Cot Monocyte TNFα Cell Based Assay.
The target in another assay is Human Cot (Homo sapiens (Human), UniProt P41279). Description: High Throughput Cot Biochemical Assay.
Setting [1] is: Homo sapiens, Monocyte, read-out: EC50 TNF, LPS-stimulated human monocytes, TNFα.
[2] abbreviates: IC50 HTRF, Cot HTRF (TR-FRET) biochemical assay.
Setting [3] is: Homo sapiens, Monocyte, read-out: EC50 TNF, LPS-stimulated human monocytes, TNFα TR-FRET.
Where [4] appears, read: IC50 HTRF, Cot HTRF (TR-FRET KinEASE) biochemical assay, 400 μM ATP.
Where [5] appears, read: read-out: EC50 TNF, LPS-stimulated human monocytes, TNFα TR-FRET.
The mark [6] stands for this setting: read-out: IC50 HTRF, Cot HTRF (TR-FRET KinEASE) biochemical assay, 400 μM ATP.

Read-outs that look alike come from different tables or passages of the source.

Sequence of Human Cot (P41279 30-397): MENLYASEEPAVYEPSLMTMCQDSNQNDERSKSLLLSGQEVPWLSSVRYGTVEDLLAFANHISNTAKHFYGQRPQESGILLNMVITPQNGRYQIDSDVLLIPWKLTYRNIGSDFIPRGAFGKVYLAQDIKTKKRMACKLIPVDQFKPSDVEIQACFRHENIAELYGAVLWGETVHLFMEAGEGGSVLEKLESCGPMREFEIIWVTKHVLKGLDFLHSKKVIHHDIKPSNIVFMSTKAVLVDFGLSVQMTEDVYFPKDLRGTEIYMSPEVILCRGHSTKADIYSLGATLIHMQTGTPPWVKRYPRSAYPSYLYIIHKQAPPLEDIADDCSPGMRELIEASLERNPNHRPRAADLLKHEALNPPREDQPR

Consider `Cc1cncc([C@H](Nc2cc(Cl)c3ncc(C#N)c(Nc4ccc(F)c(Cl)c4)c3c2)c2cn(C3CCN(C(C)(C)C)CC3)nn2)c1` [Example 250, (S)-6-(((1-(1-(tert-butyl)piperidin-4-yl)-1H-1,2,3-triazol-4-yl)(5-methylpyridin-3-yl)methyl)amino)-8-chloro-4-((3-chloro-4-fluorophenyl)amino)quinoline-3-carbonitrile], for which the concentration for a half-maximal effect (EC50) in the assay with TNFα (setting [1]) was determined as 127 nM. In addition, the midpoint of inhibition on Human Cot (setting [2]), the IC50, lay at 5 nM.
As to `COc1c([C@@H](Nc2cc(Cl)c3ncc(C#N)c(NCC(C)(C)C)c3c2)c2ccc(F)nc2C)nnn1C1(C(F)F)CC1` [Example 965, (S)-8-chloro-6-(((1-(1-(difluoromethyl)cyclopropyl)-5-methoxy-1H-1,2,3-triazol-4-yl)(6-fluoro-2-methylpyridin-3-yl)methyl)amino)-4-(neopentylamino)quinoline-3-carbonitrile], the 50% effective concentration (EC50) in the assay with TNFα (setting [3]) was 78 nM. Also, the concentration for half-maximal inhibition (IC50) against Human Cot (setting [4]) amounted to 4 nM.
Regarding `CC(C)(C)CNc1c(C#N)cnc2c(C#N)cc(N[C@@H](c3ccc4cccnc4c3)c3cn(C4(C(F)F)CC4)nn3)cc12` [Example 708, (S)-6-(((1-(1-(difluoromethyl)cyclopropyl)-1H-1,2,3-triazol-4-yl)(quinolin-7-yl)methyl)amino)-4-(neopentylamino)quinoline-3,8-dicarbonitrile], the EC50 with TNFα (setting [1]) is 176 nM. Besides, at Human Cot (setting [2]), the 50% inhibitory concentration (IC50) turned out to be 6 nM.
Taken in the same sequence, the figures for `Cc1nc(F)ccc1[C@H](Nc1cc(Cl)c2ncc(C#N)c(NCC(C)(C)C)c2c1)c1cn(Cc2c(F)cccc2F)nn1` [Example 654, (S)-8-chloro-6-(((1-(2,6-difluorobenzyl)-1H-1,2,3-triazol-4-yl)(6-fluoro-2-methylpyridin-3-yl)methyl)amino)-4-(neopentylamino)quinoline-3-carbonitrile] were 36 nM and 3 nM.
For `CC(C)(C)CNc1c(C#N)cnc2c(Cl)cc(N[C@H](c3cn(C4(C(F)F)CC4)nn3)c3cccc4cnccc34)cc12` [Example 536, (S)-8-chloro-6-(((1-(1-(difluoromethyl)-cyclopropyl)-1H-1,2,3-triazol-4-yl)(isoquinolin-5-yl)methyl)amino)-4-(neopentylamino)quinoline-3-carbonitrile] the same measures were 51 nM and 3 nM.
Taken in the same sequence, the figures for `Cc1nc(F)ccc1[C@H](Nc1cc(Cl)c2ncc(C#N)c(NCC(C)(C)C(F)(F)F)c2c1)c1cn(C2(C(F)(F)F)CC2)nn1` [Example 721, (S)-8-chloro-6-(((6-fluoro-2-methylpyridin-3-yl)(1-(1-(trifluoromethyl)cyclopropyl)-1H-1,2,3-triazol-4-yl)methyl)amino)-4-((3,3,3-trifluoro-2,2-dimethylpropyl)amino)quinoline-3-carbonitrile] were 109 nM and 6 nM.
With `Cc1scnc1[C@H](Nc1cc(Cl)c2ncc(C#N)c(NCC(C)(C)C)c2c1)c1cn(C2(C(F)F)CC2)nn1` [Example 620, (S)-8-chloro-6-(((1-(1-(difluoromethyl)cyclo-propyl)-1H-1,2,3-triazol-4-yl)(5-methylthiazol-4-yl)methyl)amino)-4-(neopentylamino)quinoline-3-carbonitrile], in the assay with TNFα (setting [1]), the EC50 amounted to 1000 nM. In addition, on Human Cot (setting [2]), the concentration for half-maximal inhibition (IC50) was 102 nM.
As to `COc1nccc2c([C@H](Nc3cc(C#N)c4ncc(C#N)c(NCC(C)(C)C)c4c3)c3cn(C4(C)CC4)nn3)cccc12` [Example 809, (S)-6-(((1-methoxylsoquinolin-5-yl)(1-(1-methylcyclopropyl)-1H-1,2,3-triazol-4-yl)methyl)amino)-4-(neopentylamino)quinoline-3,8-dicarbonitrile], the EC50 in the assay on TNFα (setting [5]) was determined as 32 nM. Besides, the IC50 at Human Cot (setting [6]) was 3 nM.
In the case of `N#Cc1cnc2c(Cl)cc(N[C@@H](c3cocn3)c3c[nH]nn3)cc2c1N[C@@H](CO)c1ccccc1` [Example 214, 8-chloro-4-(((R)-2-hydroxy-1-phenylethyl)amino)-6-(((S)-o)(azol-4-yl(1H-1,2,3-triazol-4-yl)methyl)amino)quinoline-3-carbonitrile], the EC50 in the assay with TNFα (read-out: EC50 TNF, LPS-stimulated human monocytes, TNFα) was over 10000 nM. For the same molecule, the IC50 at Human Cot (read-out: IC50 HTRF, Cot HTRF (TR-FRET) biochemical assay) is over 10000 nM.
For the molecule `CC(C)(C)ONc1c(C#N)cnc2c(I)cc(N[C@H](c3cn(C4CC4)nn3)c3cccc4ncsc34)cc12` [Example 457, (S)-6-((benzo[d]thiazol-7-yl(1-cyclopropyl-1H-1,2,3-triazol-4-yl)methyl)amino)-4-(tert-butoxyamino)-8-iodoquinoline-3-carbonitrile], the EC50 with TNFα (setting [1]) came to 1000 nM. The molecule further registered an IC50 against Human Cot (setting [2]) of 315 nM.
On to `Cc1nc(F)ccc1[C@H](Nc1cc(C#N)c2ncc(C#N)c(NCC(C)(C)C)c2c1)c1nnn(C23CC(C2)C3)c1F` [Example 954, (S)-6-(((1-(bicyclo[1.1.1]pentan-1-yl)-5-fluoro-1H-1,2,3-triazol-4-yl)(6-fluoro-2-methylpyridin-3-yl)methyl)amino)-4-(neopentylamino)quinoline-3,8-dicarbonitrile], for which the concentration giving a half-maximal response (EC50) in the assay with TNFα (setting [3]) turned out to be 16 nM. In addition, the half-maximal inhibitory concentration (IC50) at Human Cot (setting [4]) came out at 7 nM.
In the case of `Cc1c([C@H](Nc2cc(Cl)c3ncc(C#N)c(NCC(C)(C)C)c3c2)c2cn(C3(C(F)(F)F)CC3)nn2)ccnc1Cl` [Example 938, (S)-8-chloro-6-(((2-chloro-3-methylpyridin-4-yl)(1-(1-(trifluoromethyl)cyclopropyl)-1H-1,2,3-triazol-4-yl)methyl)amino)-4-(neopentylamino)quinoline-3-carbonitrile], the EC50 in the assay on TNFα (setting [3]) turned out to be 223 nM. On Human Cot (setting [4]), inhibition was half-maximal at 26 nM (IC50).
Turning to `Cc1nc(F)ccc1[C@H](Nc1cc(Cl)c2ncc(C#N)c(NCC(C)(C)C)c2c1)c1cn(C2(C(F)F)CC2)nn1` [Example 447, (S)-8-chloro-6-(((1-(1-(difluoromethyl)-cyclopropyl)-1H-1,2,3-triazol-4-yl)(6-fluoro-2-methylpyridin-3-yl)methyl)-amino)-4-(neopentylamino)quinoline-3-carbonitrile], the EC50 with TNFα (setting [1]) was determined as 40 nM. This molecule displayed an IC50 against Human Cot (setting [2]) of 2 nM.
Turning to `Cc1nc(F)ccc1[C@H](Nc1cc(Cl)c2ncc(C#N)c(NCC34CC(C3)C4)c2c1)c1cn(C2(C(F)(F)F)CC2)nn1` [Example 740, (S)-4-((bicyclo[1.1.1]pentan-1-ylmethyl)amino)-8-chloro-6-(((6-fluoro-2-methylpyridin-3-yl)(1-(1-(trifluoromethyl)cyclopropyl)-1H-1,2,3-triazol-4-yl)methyl)amino)quinoline-3-carbonitrile], the concentration giving a half-maximal response (EC50) with TNFα (setting [1]) turned out to be 311 nM. Also, the IC50 against Human Cot (setting [2]) came to 45 nM.
For the molecule `N#Cc1cnc2c(Cl)cc(N[C@@H](c3cscn3)c3cn(Cc4ccccn4)nn3)cc2c1Nc1ccc(F)c(Cl)c1` [Example 316, (S)-8-chloro-4-((3-chloro-4-fluorophenyl)amino)-6-(((1-(pyridin-2-ylmethyl)-1H-1,2,3-triazol-4-yl)(thiazol-4-yl)methyl)amino)quinoline-3-carbonitrile], the EC50 in the assay on TNFα (setting [1]) amounted to 298 nM. This molecule also registered an IC50 on Human Cot (setting [2]) of 6 nM.
For `CC(C)n1cc([C@@H](Nc2cc(Cl)c3ncc(C#N)c(Nc4ccc(F)c(Cl)c4)c3c2)c2cscn2)nn1` [Example 357, (S)-8-chloro-4-((3-chloro-4-fluorophenyl)amino)-6-(((1-isopropyl-1H-1,2,3-triazol-4-yl)(thiazol-4-yl)methyl)amino)quinoline-3-carbonitrile] the same measures were 235 nM and 5 nM.
For `CC(C)(C)CNc1c(C#N)cnc2c(Cl)cc(N[C@H](c3cn(C4(C(N)=O)CCC4)nn3)c3cccc4ncccc34)cc12` [Example 566, (S)-1-(4-(((8-chloro-3-cyano-4-(neopentyl-amino)quinolin-6-yl)amino)(quinolin-5-yl)methyl)-1H-1,2,3-triazol-1-yl)cyclobutane-1-carboxamide] the same measures were 190 nM and 2 nM.
As for `Cc1ccc2c([C@H](Nc3cc(C#N)c4ncc(C#N)c(NCC(C)(C)C)c4c3)c3cn(C4(C)CC4)nn3)cccc2n1` [Example 902], the concentration giving a half-maximal response (EC50) with TNFα (setting [5]) was determined as 36 nM. Further, the IC50 at Human Cot (setting [6]) was 3 nM.
For `Cc1ncccc1[C@H](Nc1cc(Cl)c2ncc(C#N)c(Nc3cnc(F)c(F)c3)c2c1)c1c[nH]nn1` [Example 173, (S)-8-chloro-4-((5,6-difluoropyridin-3-yl)amino)-6-(((2-methylpyridin-3-yl)(1H-1,2,3-triazol-4-yl)methyl)amino)quinoline-3-carbonitrile], in the assay on TNFα (setting [1]), the EC50 was found to be 1110 nM. The molecule further gave an IC50 on Human Cot (setting [2]) of 7 nM.
Consider `Cn1ncc2cccc([C@H](Nc3cc(Cl)c4ncc(C#N)c(NCC(C)(C)C)c4c3)c3cn(C4(C(F)(F)F)CC4)nn3)c21` [Example 521, (S)-8-chloro-6-(((1-methyl-1H-indazol-7-yl)(1-(1-(trifluoromethyl)-cyclopropyl)-1H-1,2,3-triazol-4-yl)methyl)amino)-4-(neopentylamino)-quinoline-3-carbonitrile], for which, in the assay with TNFα (setting [1]), the 50% effective concentration (EC50) is 256 nM. Moreover, half-maximal inhibition on Human Cot (setting [2]) (IC50) was put at 27 nM.
On to `Cn1ccc2c([C@H](Nc3cc(C#N)c4ncc(C#N)c(NCC(C)(C)C(F)(F)F)c4c3)c3cn(C4(C(F)(F)F)CC4)nn3)cccc2c1=O` [Example 886, (S)-6-(((2-methyl-1-oxo-1,2-dihydroisoquinolin-5-yl)(1-(1-(trifluoromethyl)-cyclopropyl)-1H-1,2,3-triazol-4-yl)methyl)-amino)-4-((3,3,3-trifluoro-2,2-dimethylpropyl)-amino)quinoline-3,8-dicarbonitrile], for which, in the assay with TNFα (setting [3]), the concentration giving a half-maximal response (EC50) stood at 30 nM. This molecule also showed a half-maximal inhibitory concentration (IC50) against Human Cot (setting [4]) of 3 nM.
Consider `CC(C)(C)ONc1c(C#N)cnc2c(C#N)cc(N[C@H](c3cn(C4CC4)nn3)c3cccc4ncsc34)cc12` [Example 456, (S)-6-((benzo[d]thiazol-7-yl(1-cyclopropyl-1H-1,2,3-triazol-4-yl)methyl)amino)-4-(tert-butoxyamino)quinoline-3,8-dicarbonitrile], for which the 50% effective concentration (EC50) with TNFα (setting [1]) worked out at 1000 nM. Further, at Human Cot (setting [2]), the IC50 was 51 nM.
